# From ChEMBL document CHEMBL1130536 (Bioorg Med Chem Lett, 1997)
# How the values were obtained:
# Glutamate NMDA receptor = assay: Binding affinity against glycine binding site of NMDA receptor using [3H]glycine; format: protein-complex assay, Rattus norvegicus
# Mus musculus [1] = assay: Mean effective dose that protects 50% of the mice against AMPA-induced lethality when it administered ip, 60 minutes prior to application of AMPA icv; format: functional
# Mus musculus [2] = species: Mus musculus; assay: The compound was tested for Mean effective dose which protects the mice against seizures induced by Maximum electroshock (MES); format: functional
# [3] = molecular target: Glutamate receptor ionotropic AMPA (Homo sapiens, UniProt P42261+P42262+P42263+P48058)
# Description: In vitro binding affinity against AMPA receptor by [3H]AMPA displacement.
# Mus musculus [4] = species: Mus musculus; assay: Percent protection of the mice against seizures induced by Maximum electroshock, by the compound was determined; format: functional
# Mus musculus [5] = species: Mus musculus; assay: The compound was tested for Mean effective dose which protects the mice against seizures induced by Maximum electroshock; format: functional
SMILES,Ki (Glutamate NMDA receptor),ED50 (Mus musculus [1]),ED50 (Mus musculus [2]),Ki [3],Protection (Mus musculus [4]),ED50 (Mus musculus [5])
O=C(O)Cn1c(=O)c(=O)[nH]c2cc([N+](=O)[O-])c(-n3ccc(C(=O)O)c3)cc21,> 30 µM,1.4 mg/kg,2.4 mg/kg,–,–,–
CCOC(=O)Cn1c(=O)c(=O)[nH]c2cc([N+](=O)[O-])c(-n3ccc(C(=O)O)c3)cc21,–,–,–,215 nM,–,–
O=C(O)Cn1c(=O)c(=O)[nH]c2cc(C(F)(F)F)c(-n3ccc(CNC(=O)Nc4ccc(C(=O)O)cc4)c3)cc21,> 30 µM,0.27 mg/kg,1.4 mg/kg,7 nM,–,–
O=C(O)Cn1c(=O)c(=O)[nH]c2cc(C(F)(F)F)c(-n3ccc(CNC(=O)Nc4cccc(C(=O)O)c4)c3)cc21,> 30 µM,3.5 mg/kg,13.5 mg/kg,20 nM,–,–
CCOC(=O)c1ccc(NC(=O)NCc2ccn(-c3cc4nc(O)c(O)nc4cc3C(F)(F)F)c2)cc1,–,–,–,450 nM,–,–
CCOC(=O)Cn1c(=O)c(=O)[nH]c2cc(C(F)(F)F)c(-n3ccc(C(=O)O)c3)cc21,> 30 µM,–,–,1500 nM,–,–
O=C(O)Cn1c(=O)c(=O)[nH]c2cc(C(F)(F)F)c(-n3ccc(C(=O)O)c3)cc21,> 30 µM,2.3 mg/kg,2.4 mg/kg,66 nM,–,–
O=C(NCc1ccn(-c2cc3nc(O)c(O)nc3cc2C(F)(F)F)c1)Nc1ccc(C(=O)O)cc1,> 30 µM,~11 mg/kg,–,54 nM,0%,46 mg/kg
O=C(O)c1ccn(-c2cc3nc(O)c(O)nc3cc2[N+](=O)[O-])c1,> 30 µM,17 mg/kg,–,60 nM,–,–
CCOC(=O)c1cccc(NC(=O)NCc2ccn(-c3cc4c(cc3C(F)(F)F)[nH]c(=O)c(=O)n4CC(=O)O)c2)c1,> 30 µM,2.9 mg/kg,28.5 mg/kg,4 nM,–,–
CCOC(=O)c1ccc(NC(=O)NCc2ccn(-c3cc4c(cc3C(F)(F)F)[nH]c(=O)c(=O)n4CC(=O)O)c2)cc1,> 30 µM,0.8 mg/kg,–,4 nM,–,–
NS(=O)(=O)c1cccc2c1c([N+](=O)[O-])cc1nc(O)c(O)nc12 [NBQX],33 µM,–,–,–,31%,46 mg/kg
O=c1[nH]c2cc(-n3ccnc3)c([N+](=O)[O-])cc2[nH]c1=O [YM-90K],7.4 µM,13 mg/kg,–,–,–,–
